Measurements reported in ChEMBL document CHEMBL5696442, “Discovery of type II inhibitors of TGFβ-activated kinase 1 (TAK1) and mitogen-activated protein kinase kinase kinase kinase 2 (MAP4K2)” (J Med Chem, 2015).

Columns and labels:
[1] = target: Phosphatidylinositol 3-kinase catalytic subunit type 3 (Homo sapiens) (UniProt Q8NEB9); test: Inhibition of PIK3C3 ATP labeling site in human A-375 cells at 5 uM by KiNativ Profiling analysis relative to control; type: cell-based
[2] = target: Casein kinase I isoform epsilon (Homo sapiens) (UniProt P49674); test: Inhibition of CK1epsilon Lys2 labeling site in human A-375 cells at 0.05 uM by KiNativ Profiling analysis relative to control; type: cell-based
Sequence of Casein kinase I isoform epsilon (Homo sapiens) (P49674 whole entry, looked up, canonical isoform): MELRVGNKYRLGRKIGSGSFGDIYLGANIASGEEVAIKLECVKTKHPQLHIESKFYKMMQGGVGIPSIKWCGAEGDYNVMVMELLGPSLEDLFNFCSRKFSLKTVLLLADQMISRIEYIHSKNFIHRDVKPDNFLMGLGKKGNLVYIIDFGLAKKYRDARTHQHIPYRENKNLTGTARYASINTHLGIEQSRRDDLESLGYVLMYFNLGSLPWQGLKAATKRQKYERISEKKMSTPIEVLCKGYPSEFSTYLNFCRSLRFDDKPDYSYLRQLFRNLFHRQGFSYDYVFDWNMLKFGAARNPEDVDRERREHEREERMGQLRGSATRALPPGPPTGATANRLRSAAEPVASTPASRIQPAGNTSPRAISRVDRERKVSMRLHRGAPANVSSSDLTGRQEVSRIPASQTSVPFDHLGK

[3] = target: T1, Serine/threonine-protein kinase Chk1 (Homo sapiens) (UniProt O14757); test: Inhibition of CHK1 Lys2 labeling site harbouring DIKPENLLLDER in human A-375 cells at 0.05 uM by KiNativ Profiling analysis relative to control; type: cell-based
T1 sequence (whole entry): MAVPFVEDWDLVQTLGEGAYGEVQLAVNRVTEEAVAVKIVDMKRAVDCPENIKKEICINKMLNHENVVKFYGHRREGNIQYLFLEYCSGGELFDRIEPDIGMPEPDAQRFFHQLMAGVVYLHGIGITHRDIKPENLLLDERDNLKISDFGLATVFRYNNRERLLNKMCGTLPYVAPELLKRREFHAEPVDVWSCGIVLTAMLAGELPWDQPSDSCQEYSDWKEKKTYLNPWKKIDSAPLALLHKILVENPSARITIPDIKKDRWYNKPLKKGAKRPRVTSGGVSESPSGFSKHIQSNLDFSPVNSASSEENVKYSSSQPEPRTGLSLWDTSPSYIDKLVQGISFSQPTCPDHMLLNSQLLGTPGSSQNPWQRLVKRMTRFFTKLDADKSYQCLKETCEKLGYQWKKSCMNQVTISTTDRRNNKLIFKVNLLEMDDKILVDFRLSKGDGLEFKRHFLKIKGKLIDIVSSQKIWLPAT

[4] = target: T2, Serine/threonine-protein kinase Nek9 (Homo sapiens) (UniProt Q8TD19); test: Inhibition of NEK9 Lys1 labeling site harbouring RTEDDSLVVWKEVDLTR in human A-375 cells at 0.5 uM by KiNativ Profiling analysis relative to control; type: cell-based
T2 sequence (whole entry): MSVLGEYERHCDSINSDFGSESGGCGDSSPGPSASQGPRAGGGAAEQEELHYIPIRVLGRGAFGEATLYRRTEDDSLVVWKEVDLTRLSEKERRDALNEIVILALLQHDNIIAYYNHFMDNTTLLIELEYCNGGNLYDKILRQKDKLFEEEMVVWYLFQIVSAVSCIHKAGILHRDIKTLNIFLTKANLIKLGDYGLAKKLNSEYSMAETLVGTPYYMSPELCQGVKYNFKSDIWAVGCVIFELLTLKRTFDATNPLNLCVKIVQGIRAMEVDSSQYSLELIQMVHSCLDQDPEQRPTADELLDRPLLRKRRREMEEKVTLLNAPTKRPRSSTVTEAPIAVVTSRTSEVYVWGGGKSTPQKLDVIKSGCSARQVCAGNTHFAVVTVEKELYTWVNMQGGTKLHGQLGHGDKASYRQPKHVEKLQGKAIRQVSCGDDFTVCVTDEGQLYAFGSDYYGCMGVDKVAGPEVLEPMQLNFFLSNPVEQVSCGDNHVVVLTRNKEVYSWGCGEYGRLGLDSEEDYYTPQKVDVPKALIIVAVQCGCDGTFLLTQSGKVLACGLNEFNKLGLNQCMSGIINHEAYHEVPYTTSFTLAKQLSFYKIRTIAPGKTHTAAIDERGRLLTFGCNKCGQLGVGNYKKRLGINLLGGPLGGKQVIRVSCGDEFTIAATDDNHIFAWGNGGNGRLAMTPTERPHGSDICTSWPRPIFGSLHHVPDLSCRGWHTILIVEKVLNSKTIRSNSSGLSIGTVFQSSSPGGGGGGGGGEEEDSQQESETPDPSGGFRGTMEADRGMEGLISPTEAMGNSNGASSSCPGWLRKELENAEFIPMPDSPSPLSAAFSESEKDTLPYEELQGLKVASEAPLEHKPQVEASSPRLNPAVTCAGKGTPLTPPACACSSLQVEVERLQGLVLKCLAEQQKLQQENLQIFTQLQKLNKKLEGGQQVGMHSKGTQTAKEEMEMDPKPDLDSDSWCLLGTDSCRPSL

[5] = target: Misshapen-like kinase 1 (Homo sapiens) (UniProt Q8N4C8); test: Inhibition of ZC3/MINK Lys2 labeling site in human A-375 cells at 0.05 uM by KiNativ Profiling analysis relative to control; type: cell-based
Sequence of Misshapen-like kinase 1 (Homo sapiens) (Q8N4C8 whole entry, looked up): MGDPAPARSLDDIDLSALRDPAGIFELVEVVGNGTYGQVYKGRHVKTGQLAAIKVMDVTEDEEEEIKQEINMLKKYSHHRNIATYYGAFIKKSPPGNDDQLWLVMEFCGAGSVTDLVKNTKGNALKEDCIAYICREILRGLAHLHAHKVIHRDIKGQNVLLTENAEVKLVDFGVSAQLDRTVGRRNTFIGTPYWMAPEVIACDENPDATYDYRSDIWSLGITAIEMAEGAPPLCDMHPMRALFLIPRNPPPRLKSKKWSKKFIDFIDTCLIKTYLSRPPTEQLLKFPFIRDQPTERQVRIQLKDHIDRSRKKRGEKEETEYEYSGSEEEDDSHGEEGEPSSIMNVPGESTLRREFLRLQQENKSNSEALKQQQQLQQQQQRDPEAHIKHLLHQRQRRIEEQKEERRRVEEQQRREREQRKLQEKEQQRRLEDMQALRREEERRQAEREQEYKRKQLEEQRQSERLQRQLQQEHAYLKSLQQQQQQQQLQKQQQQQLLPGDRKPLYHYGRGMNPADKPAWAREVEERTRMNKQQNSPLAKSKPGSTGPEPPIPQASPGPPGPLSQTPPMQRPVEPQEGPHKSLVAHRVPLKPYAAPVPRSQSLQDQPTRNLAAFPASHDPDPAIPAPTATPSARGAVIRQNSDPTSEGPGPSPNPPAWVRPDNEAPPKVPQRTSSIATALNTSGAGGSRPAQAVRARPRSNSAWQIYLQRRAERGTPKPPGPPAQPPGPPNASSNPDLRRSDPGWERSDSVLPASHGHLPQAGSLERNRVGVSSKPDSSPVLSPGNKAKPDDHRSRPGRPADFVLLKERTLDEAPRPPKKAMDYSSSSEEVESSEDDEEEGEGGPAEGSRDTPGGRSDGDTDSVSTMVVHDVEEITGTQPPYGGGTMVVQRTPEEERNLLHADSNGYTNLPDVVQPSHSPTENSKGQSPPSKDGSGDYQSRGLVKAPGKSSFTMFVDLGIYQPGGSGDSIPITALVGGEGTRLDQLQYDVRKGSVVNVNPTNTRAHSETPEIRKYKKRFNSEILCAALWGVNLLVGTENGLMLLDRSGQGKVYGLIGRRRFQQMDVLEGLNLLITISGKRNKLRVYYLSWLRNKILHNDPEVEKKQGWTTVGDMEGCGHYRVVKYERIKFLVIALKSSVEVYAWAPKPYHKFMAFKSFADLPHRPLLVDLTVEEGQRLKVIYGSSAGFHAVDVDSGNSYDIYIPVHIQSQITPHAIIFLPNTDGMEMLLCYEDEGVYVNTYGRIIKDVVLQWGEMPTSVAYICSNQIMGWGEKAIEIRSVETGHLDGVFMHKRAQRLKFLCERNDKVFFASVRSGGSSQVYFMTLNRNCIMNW

[6] = target: T3, Serine/threonine-protein kinase TBK1 (Homo sapiens) (UniProt Q9UHD2); test: Inhibition of TBK1 Lys2 labeling site in human A-375 cells at 0.05 uM by KiNativ Profiling analysis relative to control; type: cell-based
T3 sequence (whole entry): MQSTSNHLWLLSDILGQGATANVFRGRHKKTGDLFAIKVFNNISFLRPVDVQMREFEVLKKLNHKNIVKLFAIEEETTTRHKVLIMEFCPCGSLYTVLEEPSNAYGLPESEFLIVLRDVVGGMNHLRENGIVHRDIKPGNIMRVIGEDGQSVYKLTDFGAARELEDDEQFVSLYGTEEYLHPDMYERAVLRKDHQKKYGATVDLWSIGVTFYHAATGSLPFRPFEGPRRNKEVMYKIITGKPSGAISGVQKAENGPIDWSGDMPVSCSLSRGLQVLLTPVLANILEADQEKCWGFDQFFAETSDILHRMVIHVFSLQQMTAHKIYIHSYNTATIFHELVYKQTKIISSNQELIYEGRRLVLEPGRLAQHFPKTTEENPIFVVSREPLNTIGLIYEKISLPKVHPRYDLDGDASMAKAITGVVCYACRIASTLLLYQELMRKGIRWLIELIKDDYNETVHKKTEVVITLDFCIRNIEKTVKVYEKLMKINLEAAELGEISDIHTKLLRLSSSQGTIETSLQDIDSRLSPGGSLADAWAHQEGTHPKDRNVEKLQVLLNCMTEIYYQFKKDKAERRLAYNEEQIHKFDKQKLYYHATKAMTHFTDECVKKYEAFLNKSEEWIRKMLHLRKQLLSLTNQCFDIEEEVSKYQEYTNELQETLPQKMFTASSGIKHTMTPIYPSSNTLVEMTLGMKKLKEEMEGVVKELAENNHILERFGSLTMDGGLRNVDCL

[7] = target: Serine/threonine-protein kinase WNK4 (Homo sapiens) (UniProt Q96J92); test: Inhibition of Wnk4 ACT labeling site in human A-375 cells at 5 uM by KiNativ Profiling analysis relative to control; type: cell-based
Sequence of Serine/threonine-protein kinase WNK4 (Homo sapiens) (Q96J92 whole entry): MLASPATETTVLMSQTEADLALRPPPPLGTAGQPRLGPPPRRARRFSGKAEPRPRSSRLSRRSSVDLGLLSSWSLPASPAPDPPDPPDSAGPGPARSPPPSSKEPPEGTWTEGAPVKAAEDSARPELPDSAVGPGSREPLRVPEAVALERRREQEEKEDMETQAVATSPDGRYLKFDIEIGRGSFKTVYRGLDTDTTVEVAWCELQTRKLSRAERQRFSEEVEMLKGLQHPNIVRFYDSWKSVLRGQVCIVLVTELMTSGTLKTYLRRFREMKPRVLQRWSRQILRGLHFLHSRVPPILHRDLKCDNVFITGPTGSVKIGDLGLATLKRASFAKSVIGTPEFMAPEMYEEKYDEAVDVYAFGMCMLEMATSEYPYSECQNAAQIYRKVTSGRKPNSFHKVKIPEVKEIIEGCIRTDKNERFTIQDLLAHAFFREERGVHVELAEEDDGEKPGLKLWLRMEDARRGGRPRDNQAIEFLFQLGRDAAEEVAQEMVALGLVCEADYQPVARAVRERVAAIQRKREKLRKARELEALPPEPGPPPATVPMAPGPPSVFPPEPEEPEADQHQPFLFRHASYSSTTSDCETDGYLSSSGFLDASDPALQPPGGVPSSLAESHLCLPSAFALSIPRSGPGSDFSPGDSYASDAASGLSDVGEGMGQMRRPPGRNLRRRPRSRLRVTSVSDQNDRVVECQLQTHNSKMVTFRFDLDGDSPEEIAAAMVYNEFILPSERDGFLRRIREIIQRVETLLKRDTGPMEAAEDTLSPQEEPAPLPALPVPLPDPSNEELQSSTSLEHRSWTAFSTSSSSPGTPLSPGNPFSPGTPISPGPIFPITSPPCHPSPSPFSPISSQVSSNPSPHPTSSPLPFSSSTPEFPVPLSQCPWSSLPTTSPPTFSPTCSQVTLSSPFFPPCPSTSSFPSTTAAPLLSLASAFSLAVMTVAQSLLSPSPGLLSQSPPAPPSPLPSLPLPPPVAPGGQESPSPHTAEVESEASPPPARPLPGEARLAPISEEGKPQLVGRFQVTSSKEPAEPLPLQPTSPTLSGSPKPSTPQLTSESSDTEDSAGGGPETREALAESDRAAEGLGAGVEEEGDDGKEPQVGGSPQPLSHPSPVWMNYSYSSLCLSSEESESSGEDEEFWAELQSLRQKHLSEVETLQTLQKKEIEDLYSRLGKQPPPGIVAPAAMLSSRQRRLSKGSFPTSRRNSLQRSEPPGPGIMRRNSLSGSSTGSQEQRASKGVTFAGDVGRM

[8] = target: Mitogen-activated protein kinase 8 (Homo sapiens, UniProt P45983); test: Inhibition of JNK1 Lys2 labeling site in human Huh-7 cell lysate at 1 uM by KiNativ Profiling analysis relative to control; type: subcellular
Sequence of Mitogen-activated protein kinase 8 (P45983 whole entry): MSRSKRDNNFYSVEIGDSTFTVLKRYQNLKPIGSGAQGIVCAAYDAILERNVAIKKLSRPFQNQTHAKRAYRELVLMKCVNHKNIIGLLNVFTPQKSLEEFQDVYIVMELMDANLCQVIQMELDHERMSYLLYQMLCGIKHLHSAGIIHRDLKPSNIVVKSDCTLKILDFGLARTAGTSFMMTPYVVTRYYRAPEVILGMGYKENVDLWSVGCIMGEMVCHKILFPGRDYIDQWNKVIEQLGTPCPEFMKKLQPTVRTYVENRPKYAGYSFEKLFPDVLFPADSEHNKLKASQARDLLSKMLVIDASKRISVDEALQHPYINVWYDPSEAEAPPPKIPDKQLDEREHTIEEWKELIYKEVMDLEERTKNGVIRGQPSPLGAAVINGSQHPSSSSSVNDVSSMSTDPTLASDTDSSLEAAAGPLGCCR

[9] = Inhibition of IL-1 induced p38 MAPK phosphorylation level in wild type mouse MEF cells at 500 nM incubated for 1 hr followed by IL-1 stimulation by Western blot analysis relative to control; type: functional

Sequence of Phosphatidylinositol 3-kinase catalytic subunit type 3 (Homo sapiens) (Q8NEB9 whole entry, canonical isoform): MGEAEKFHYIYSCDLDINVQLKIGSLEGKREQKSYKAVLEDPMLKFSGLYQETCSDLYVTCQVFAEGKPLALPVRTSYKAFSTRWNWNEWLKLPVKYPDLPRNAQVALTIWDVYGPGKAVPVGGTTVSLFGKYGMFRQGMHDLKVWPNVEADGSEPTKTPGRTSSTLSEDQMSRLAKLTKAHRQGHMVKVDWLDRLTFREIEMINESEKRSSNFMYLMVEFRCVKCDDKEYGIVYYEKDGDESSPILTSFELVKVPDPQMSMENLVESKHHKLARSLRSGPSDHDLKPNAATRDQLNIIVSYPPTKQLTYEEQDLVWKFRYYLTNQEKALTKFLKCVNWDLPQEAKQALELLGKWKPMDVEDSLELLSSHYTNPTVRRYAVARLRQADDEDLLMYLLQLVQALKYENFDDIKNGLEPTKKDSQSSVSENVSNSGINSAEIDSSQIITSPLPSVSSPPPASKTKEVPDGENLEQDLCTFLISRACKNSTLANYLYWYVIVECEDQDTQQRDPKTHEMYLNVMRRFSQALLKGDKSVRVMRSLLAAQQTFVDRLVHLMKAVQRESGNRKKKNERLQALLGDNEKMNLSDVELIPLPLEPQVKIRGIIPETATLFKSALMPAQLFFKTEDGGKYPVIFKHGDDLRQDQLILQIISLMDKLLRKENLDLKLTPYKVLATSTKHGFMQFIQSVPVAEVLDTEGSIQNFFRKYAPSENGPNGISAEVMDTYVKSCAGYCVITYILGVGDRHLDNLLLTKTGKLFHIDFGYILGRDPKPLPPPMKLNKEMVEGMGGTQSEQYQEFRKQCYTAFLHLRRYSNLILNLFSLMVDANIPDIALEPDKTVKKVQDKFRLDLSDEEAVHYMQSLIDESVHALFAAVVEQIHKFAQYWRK

Structure (SMILES)	inhibition [1] [%]	inhibition [2] [%]	inhibition [3] [%]	inhibition [4] [%]	inhibition [5] [%]	inhibition [6] [%]	inhibition [7] [%]	inhibition [8] [%]	inhibition at 0.5 µM [9] [%]
CCN1CCN(Cc2ccc(NC(=O)c3ccc(C)c(/C=C/c4cnc5[nH]ccc5c4OC)c3)cc2C(F)(F)F)CC1	35.1	-9.6	8.3	7	19.5	19.8	-4.5		
CCN1CCN(Cc2ccc(NC(=O)c3ccc(C)c(Oc4ccnc5[nH]ccc45)c3)cc2C(F)(F)F)CC1	40.5	-0.7	49.4	13.9	32.6	29.2	14.4		
CNc1cc(Oc2cc(C(=O)Nc3cc(-n4cnc(C)c4)cc(C(F)(F)F)c3)ccc2C)ncn1								18.4	50
CNc1cc(Oc2cc(C(=O)Nc3cc(N4CCN(C)CC4)cc(C(F)(F)F)c3)ccc2C)ncn1								7	50
